Source: DBAASP
Converted amounts (≈) assume the structure as drawn. “And” between values parts separate entries of the source, which are not always exact repeats. Identical values can stand only once. Each block holds one compound with its values, some of them ahead of it.

Assays:
Assay in all cases: ≥ marks a high value that may be exact or a test limit, other limits are often not marked, values filed in µg/mL are converted to µM
[1] = test system: Pseudomonas aeruginosa ATCC 27853
[2] = test system: Salmonella enterica subsp. enterica serovar Typhimurium ATCC 14028
[3] = test system: Klebsiella pneumoniae ATCC 13883
[4] = test system: Escherichia coli DH5alpha
[5] = test system: Staphylococcus aureus ATCC 2592
[6] = test system: Bacillus subtilis
[7] = test system: Candida albicans ATCC 2002
[8] = test system: Escherichia coli ATCC 25922
[9] = test system: Staphylococcus aureus NCTC 8325
[10] = test system: Salmonella enterica subsp. enterica serovar Typhimurium C77-31
[11] = test system: Escherichia coli UB1005
[12] = test system: Staphylococcus aureus ATCC 25923
[13] = test system: Staphylococcus epidermidis ATCC 12228
[14] = test system: Staphylococcus aureus ATCC 29213
[15] = test system: Enterococcus faecalis ATCC 29212
[16] = test system: Candida albicans ATCC 90028

MIC [1]: 10 µM (≈ 22.6 µg/mL)
MIC [2]: 15 µM (≈ 33.9 µg/mL)
MIC [3]: 7 µM and 5 µM
MIC [4]: 10 µM (≈ 22.6 µg/mL)
SMILES: CC[C@H](C)[C@H](NC(=O)[C@H](Cc1cnc[nH]1)NC(=O)[C@H](C)NC(=O)[C@H](CCSC)NC(=O)[C@H](CC(N)=O)NC(=O)[C@H](CCCCN)NC(=O)[C@H](CCCCN)NC(=O)[C@@H](NC(=O)[C@@H](NC(=O)[C@H](CCCCN)NC(=O)[C@H](C)NC(=O)[C@H](Cc1ccccc1)NC(=O)[C@H](CC(C)C)NC(=O)[C@H](CCCCN)NC(=O)[C@@H]1CCCN1C(=O)[C@H](CC(C)C)NC(=O)[C@H](Cc1ccccc1)NC(=O)[C@@H](N)CS)[C@@H](C)CC)[C@@H](C)O)C(=O)N[C@@H](CCCN=C(N)N)C(=O)O [CFLPKLFAKITKKNMAHIR]

MIC [5]: 4.5 µM (≈ 12.5 µg/mL)
MIC [6]: 18 µM (≈ 50 µg/mL)
MIC [7]: 2.27 µM (≈ 6.3 µg/mL)
MIC [8]: 4.5 µM (≈ 12.5 µg/mL)
SMILES: CC[C@H](C)[C@H](NC(=O)[C@H](C)NC(=O)[C@H](CS)NC(=O)[C@@H](NC(=O)[C@@H](NC(=O)[C@@H](NC(=O)[C@@H]1CCCN1C(=O)[C@@H](NC(=O)[C@@H](NC(=O)[C@@H](NC(=O)[C@H](C)NC(=O)[C@H](Cc1ccccc1)NC(=O)[C@H](CC(C)C)NC(=O)[C@H](CCCN=C(N)N)NC(=O)[C@H](CCCN=C(N)N)NC(=O)[C@H](CC(C)C)NC(=O)CNC(=O)[C@@H]1CCCN1C(=O)[C@@H](NC(=O)[C@@H](N)Cc1ccccc1)[C@@H](C)CC)[C@@H](C)O)C(C)C)C(C)C)[C@@H](C)O)C(C)C)C(C)C)C(=O)N[C@@H](CC(N)=O)C(=O)N[C@@H](CCCCN)C(=O)N[C@@H](CC(C)C)C(=O)N1CCC[C@H]1C(=O)N1CCC[C@H]1C(=O)NCC(=O)O [FIPGLRRLFATVVPTVVCAINKLPPG]

MIC [9]: 12.5 µM (≈ 26.5 µg/mL)
MIC [8]: 12.5 µM (≈ 26.5 µg/mL)
SMILES: CC[C@H](C)[C@H](NC(=O)[C@@H](NC(=O)[C@H](CO)NC(=O)[C@@H]1CCCN1C(=O)[C@@H](NC(=O)[C@H](CC(C)C)NC(=O)[C@H](CCCCN)NC(=O)[C@H](Cc1ccccc1)NC(=O)[C@H](CC(C)C)NC(=O)CNC(=O)CNC(=O)[C@H](CC(C)C)NC(=O)[C@@H](N)Cc1ccccc1)C(C)C)C(C)C)C(=O)N[C@H]1CSSC[C@@H](C(=O)O)NC(=O)[C@H](CCCCN)NC(=O)[C@H](CCCCN)NC(=O)[C@H]([C@@H](C)O)NC(=O)[C@H](C(C)C)NC(=O)[C@H](C)NC1=O [FLGGLFKLVPSVICAVTKKC]

MIC [5]: 10.3 µM (≈ 25 µg/mL)
MIC [6]: 20.7 µM (≈ 50 µg/mL)
MIC [7]: 10.3 µM (≈ 25 µg/mL)
MIC [8]: 20.7 µM (≈ 50 µg/mL)
SMILES: CC[C@H](C)[C@H](NC(=O)CNC(=O)[C@H](CO)NC(=O)[C@H](CCCN=C(N)N)NC(=O)[C@@H](N)Cc1ccccc1)C(=O)N[C@@H](CC(C)C)C(=O)N[C@@H](CCCCN)C(=O)N[C@@H](CC(C)C)C(=O)N[C@@H](C)C(=O)N[C@@H](CO)C(=O)N[C@@H](CCCCN)C(=O)N[C@H](C(=O)NCC(=O)N[C@@H](CO)C(=O)N[C@H](C(=O)N[C@@H](CC(C)C)C(=O)N[C@H]1CSSC[C@@H](C(=O)O)NC(=O)[C@H](CC(N)=O)NC(=O)[C@H](CCCCN)NC(=O)[C@H](CC(C)C)NC(=O)[C@H](C(C)C)NC(=O)[C@H](C)NC1=O)C(C)C)[C@@H](C)CC [FRSGILKLASKIGSVLCAVLKNC]

MIC [9]: ≥ 160 µM
MIC [8]: 20 µM (≈ 54.7 µg/mL)
SMILES: CC[C@H](C)[C@H](NC(=O)CNC(=O)[C@H](CCC(N)=O)NC(=O)[C@H](Cc1ccccc1)NC(=O)[C@H](Cc1ccccc1)NC(=O)[C@H](CCCCN)NC(=O)[C@H](CCCCN)NC(=O)[C@H](CC(C)C)NC(=O)[C@H](C)NC(=O)[C@H](CC(N)=O)NC(=O)[C@H](CC(C)C)NC(=O)CN)C(=O)N[C@@H](Cc1cnc[nH]1)C(=O)N[C@@H](CCC(=O)O)C(=O)N[C@@H](C)C(=O)N[C@H](C(=O)N[C@@H](CCCCN)C(=O)N[C@@H](CC(C)C)C(=O)N[C@H](C(=O)N[C@@H](CC(N)=O)C(=O)N[C@@H](CC(N)=O)C(=O)N[C@@H](Cc1cnc[nH]1)C(=O)N[C@H](C(=O)N[C@@H](CCC(N)=O)C(=O)O)C(C)C)[C@@H](C)CC)[C@@H](C)CC [GLNALKKFFQGIHEAIKLINNHVQ]

MIC [9]: ≥ 80 µM
MIC [8]: 20 µM (≈ 53.7 µg/mL)
SMILES: CC[C@H](C)[C@H](NC(=O)CNC(=O)[C@H](CCC(N)=O)NC(=O)[C@H](Cc1ccccc1)NC(=O)[C@@H](NC(=O)[C@H](CCCCN)NC(=O)[C@H](CCCCN)NC(=O)[C@H](CC(C)C)NC(=O)[C@H](C)NC(=O)[C@H](CC(N)=O)NC(=O)[C@H](CC(C)C)NC(=O)CN)C(C)C)C(=O)N[C@@H](Cc1cnc[nH]1)C(=O)N[C@@H](CCC(=O)O)C(=O)N[C@@H](C)C(=O)N[C@H](C(=O)N[C@@H](CCCCN)C(=O)N[C@@H](CC(C)C)C(=O)N[C@H](C(=O)N[C@@H](CC(N)=O)C(=O)N[C@@H](CC(N)=O)C(=O)N[C@@H](Cc1cnc[nH]1)C(=O)N[C@H](C(=O)N[C@@H](CCCCN)C(=O)O)C(C)C)[C@@H](C)CC)[C@@H](C)CC [GLNALKKVFQGIHEAIKLINNHVK]

MIC [10]: ≥ 128 µM
MIC [11]: ≥ 128 µM
MIC [12]: > 128 µM
MIC [13]: > 128 µM
MIC [14]: > 128 µM
MIC [8]: 128 µM (≈ 205 µg/mL)
SMILES: CC(C)C[C@H](NC(=O)[C@H](CCCN=C(N)N)NC(=O)[C@H](CCCN=C(N)N)NC(=O)[C@H](Cc1ccccc1)NC(=O)[C@H](CCCN=C(N)N)NC(=O)CN)C(=O)N[C@@H](CCCN=C(N)N)C(=O)N[C@@H](CCCCN)C(=O)N[C@@H](CCCCN)C(=O)N[C@H](C(=O)N[C@@H](CCCN=C(N)N)C(=O)N[C@@H](CCCCN)C(N)=O)[C@@H](C)O [GRFRRLRKKTRK]

MIC [10]: 8 µM (≈ 18.4 µg/mL)
MIC [11]: 8 µM (≈ 18.4 µg/mL)
MIC [13]: 4 µM (≈ 9.2 µg/mL)
MIC [15]: 8 µM (≈ 18.4 µg/mL)
SMILES: CC[C@H](C)[C@H](NC(=O)[C@H](CCCCN)NC(=O)[C@H](CCCCN)NC(=O)[C@H](CC(C)C)NC(=O)[C@H](CCCN=C(N)N)NC(=O)[C@H](CCCCN)NC(=O)[C@H](CCCN=C(N)N)NC(=O)[C@@H](NC(=O)[C@H](Cc1c[nH]c2ccccc12)NC(=O)[C@H](Cc1c[nH]c2ccccc12)NC(=O)[C@H](CCCN=C(N)N)NC(=O)[C@H](CC(C)C)NC(=O)[C@H](CCCN=C(N)N)NC(=O)[C@H](CCCN=C(N)N)NC(=O)[C@H](Cc1ccccc1)NC(=O)[C@@H](N)CCCN=C(N)N)[C@@H](C)O)C(N)=O [RFRRLRWWTRKRLKKI]

MIC [10]: 8 µM (≈ 14.5 µg/mL)
MIC [11]: 4 µM (≈ 7.25 µg/mL)
MIC [12]: 8 µM (≈ 14.5 µg/mL)
MIC [13]: 8 µM (≈ 14.5 µg/mL)
MIC [14]: 4 µM (≈ 7.25 µg/mL)
MIC [8]: 4 µM (≈ 7.25 µg/mL)
SMILES: CC(C)C[C@H](NC(=O)[C@H](CCCN=C(N)N)NC(=O)[C@H](Cc1c[nH]c2ccccc12)NC(=O)[C@H](CCCN=C(N)N)NC(=O)[C@@H](NC(=O)[C@H](Cc1c[nH]c2ccccc12)NC(=O)[C@H](Cc1c[nH]c2ccccc12)NC(=O)[C@H](CCCN=C(N)N)NC(=O)[C@H](CC(C)C)NC(=O)[C@H](CCCN=C(N)N)NC(=O)[C@@H](N)CCCN=C(N)N)[C@@H](C)O)C(=O)N[C@@H](CCCCN)C(N)=O [RRLRWWTRWRLK]

MIC [9]: 24 µM (≈ 37.5 µg/mL)
SMILES: CC[C@H](C)[C@H](NC(=O)[C@@H](NC(=O)[C@@H]1CCCN1C(=O)[C@H](CC(C)C)NC(=O)[C@@H](NC(=O)[C@@H](N)CO)[C@@H](C)CC)[C@@H](C)O)C(=O)N[C@H](C(=O)N[C@@H](CO)C(=O)N[C@@H](Cc1ccccc1)C(=O)N[C@@H](CC(C)C)C(=O)N[C@@H](CO)C(=O)N[C@@H](CCCCN)C(=O)N[C@@H](Cc1ccccc1)C(=O)N[C@@H](CC(C)C)C(N)=O)C(C)C [SILPTIVSFLSKFL]

MIC [9]: ≥ 60 µM
MIC [16]: ≥ 110 µM
MIC [8]: 3.5 µM (≈ 9.22 µg/mL)
SMILES: CC[C@H](C)[C@H](NC(=O)[C@H](CCSC)NC(=O)[C@@H](N)CO)C(=O)N[C@@H](CO)C(=O)N[C@H](C(=O)N[C@@H](CC(C)C)C(=O)N[C@@H](CCCCN)C(=O)N[C@@H](CC(N)=O)C(=O)N[C@@H](CC(C)C)C(=O)NCC(=O)N[C@@H](CCCCN)C(=O)N[C@H](C(=O)NCC(=O)N[C@@H](CC(C)C)C(=O)NCC(=O)N[C@@H](Cc1ccccc1)C(=O)N[C@H](C(=O)N[C@@H](C)C(=O)N[C@H]1CSSC[C@@H](C(=O)O)NC(=O)[C@H](CCC(N)=O)NC(=O)[C@H](CCCCN)NC(=O)[C@H](CC(N)=O)NC(=O)[C@H](C(C)C)NC(=O)[C@H](CCCCN)NC1=O)C(C)C)C(C)C)C(C)C [SMISVLKNLGKVGLGFVACKVNKQC]

MIC [5]: 2.06 µM (≈ 4.69 µg/mL)
MIC [6]: 2.06 µM (≈ 4.69 µg/mL)
MIC [7]: 1.03 µM (≈ 2.34 µg/mL)
MIC [8]: 8.24 µM (≈ 18.7 µg/mL)
SMILES: CC(C)[C@H](N)C(=O)N[C@@H](CCCCN)C(=O)N[C@@H](CCCN=C(N)N)C(=O)N[C@@H](Cc1c[nH]c2ccccc12)C(=O)N[C@@H](CCCCN)C(=O)N[C@@H](CCCCN)C(=O)N[C@@H](Cc1ccccc1)C(=O)N[C@@H](Cc1c[nH]c2ccccc12)C(=O)N[C@@H](CCCN=C(N)N)C(=O)N[C@@H](CCCCN)C(=O)N[C@@H](Cc1c[nH]c2ccccc12)C(=O)N[C@@H](CCCCN)C(=O)N[C@@H](CCCCN)C(=O)N[C@@H](Cc1c[nH]c2ccccc12)C(=O)N[C@@H](Cc1c[nH]c2ccccc12)C(N)=O [VKRWKKFWRKWKKWW]
